In assay [1] the test system is human multiple myeloma cell line, OPM-2. The assay is described as follows: Cell viability assay (OPM-2 10 FBS), CellTiter-Glo. The assay is classed as cell-based. Put shortly:
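IC50 values come from 4-parameter logistic fits of luminescence signals reflecting cell viability. Treatment lasted 16 h at 37 °C in complete medium with 10% FBS, starting from 3000 cells/well.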

In assay [2] the target is recombinant human Mcl-1 (residues 171-327) / Bim interaction (Homo sapiens (Human), UniProt Q07820). The assay can be described thus: biochemical. In kind it is binding. The conditions noted are these: read-out: Mcl-1 HTRF IC50.
[3] abbreviates: Homo sapiens, OPM-2, 16 h, read-out: OPM-2 10% FBS IC50 IP, OPM-2 cells, 10% FBS, 16 h, CellTiter-Glo.
[4] abbreviates: TR-FRET, Mcl-1(171-327) / biotin-Bim (51-76).
Where [5] appears, read: read-out: OPM-2 10% FBS IC50 IP, OPM-2 cells, 10% FBS, 16 h, CellTiter-Glo.
The mark [6] stands for this setting: Homo sapiens, OPM-2, 16 h, read-out: OPM-2 10% FBS IC50 IP, OPM-2 cells, 10% FBS, 16 h incubation.
Setting [7] is: 0.1 nM Mcl-1(171-327), 0.05 nM biotin-Bim (51-76).

Structures are written as SMILES. Read-outs that look alike come from different tables or passages of the source.

Sequence of recombinant human Mcl-1 (residues 171-327) / Bim interaction (Q07820 171-327): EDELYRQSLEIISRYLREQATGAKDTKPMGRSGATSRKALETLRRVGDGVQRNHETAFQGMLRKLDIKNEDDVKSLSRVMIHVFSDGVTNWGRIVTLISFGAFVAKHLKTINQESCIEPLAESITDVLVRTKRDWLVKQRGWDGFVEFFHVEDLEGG

For orientation: IC50 means the point on the concentration scale where inhibition reaches its midpoint. With `COC[C@]1(OC)CCC[C@H](C)[C@@H](C)S(=O)(=O)NC(=O)c2ccc3c(c2)N(C[C@@H]2CC[C@H]21)C[C@@]1(CCCc2cc(Cl)ccc21)CO3` [Example 100189, (1S,3′R,6′R,7′S,11′S,12′R)-6-chloro-7′-methoxy-7′-(methoxymethyl)-11′,12′-dimethyl-3,4-dihydro-2H,15′H-spiro[naphthalene-1,22′-[20]oxa[13]thia[1,14]diazatetracyclo [14.7.2.0~3,6~.0~19,24~]pentacosa[16,18,24]trien]-15′-one 13′,13′-dioxide], the results for the IC50 in assay [1] (setting [3]) and in assay [2] (setting [4]) were 701 nM and 0.82 nM, respectively.
For `C[C@H](C(=O)O)[C@@]1(O)/C=C/C[C@H](C)[C@@H](C)S(=O)(=O)NC(=O)c2ccc3c(c2)N(C[C@@H]2CC[C@H]21)C[C@@]1(CCCc2cc(Cl)ccc21)CO3` (single isomer, unassigned) [Example 100122], the IC50 was found to be 1190 nM in assay [1] (setting [5]) and 0.098 nM in assay [2] (setting [4]).
For `CO[C@@]1(C2SCCCS2)CCC[C@H](C)[C@@H](C)S(=O)(=O)NC(=O)c2ccc3c(c2)N(C[C@@H]2CC[C@H]21)C[C@@]1(CCCc2cc(Cl)ccc21)CO3` [Example 100254, (1S,3′R,6′R,7′S,11′S,12′R)-6-chloro-7′-(1,3-dithian-2-yl)-7′-methoxy-11′,12′-dimethyl-3,4-dihydro-2H,15′H-spiro[naphthalene-1,22′-[20]oxa[13]thia[1,14]diazatetracyclo [14.7.2.0~3,6~.0~19,24~]pentacosa[16,18,24]trien]-15′-one 13′,13′-dioxide], the IC50 stood at 2150 nM in assay [1] (setting [5]) and 4.07 nM in assay [2] (setting [4]).
With `CO[C@@]1(CN2CCN(c3cncnc3)CC2)/C=C/C[C@H](C)[C@@H](C)S(=O)(=O)NC(=O)c2ccc3c(c2)N(C[C@@H]2CC[C@H]21)C[C@@]1(CCCc2cc(Cl)ccc21)CO3` [Example 305, (1S,3′R,6′R,7′S,8′E,11′S,12′R)-6-chloro-7′-methoxy-11′,12′-dimethyl-7′-((4-(5-pyrimidinyl)-1-piperazinyl)methyl)-3,4-dihydro-2H,15′H-spiro[naphthalene-1,22′-[20]oxa[13]thia[1,14]diazatetracyclo [14.7.2.0~3,6~.0~19,24~]pentacosa[8,16,18,24]tetraen]-15′-one 13′,13′-dioxide], the IC50 in assay [1] (setting [6]) is 327 nM; in assay [2] (setting [7]) it was 0.33 nM.
Regarding `C[C@@H]1[C@@H](C)C/C=C/[C@@](O)(CC(=O)N(C)C)[C@@H]2CC[C@H]2CN2C[C@@]3(CCCc4cc(Cl)ccc43)COc3ccc(cc32)C(=O)NS1(=O)=O` [Example 100077, 2-((1S,3′R,6′R,7′S,8′E,11′S,12′R)-6-chloro-7′-hydroxy-11′,12′-dimethyl-13′,13′-dioxido-15′-oxo-3,4-dihydro-2H-spiro[naphthalene-1,22′-[20]oxa[13]thia[1,14]diazatetracyclo [14.7.2.0~3,6~.0~19,24~]pentacosa[8,16,18,24]tetraen]-7′-yl)-N,N-dimethylacetamide], the figures for the IC50 in assay [1] (setting [5]) and in assay [2] (setting [4]) were 52 nM and 0.19 nM, respectively.
With `C[C@@H]1[C@@H](C)CCC[C@@]2(OCCO[C@H]2C=O)[C@@H]2CC[C@H]2CN2C[C@@]3(CCCc4cc(Cl)ccc43)COc3ccc(cc32)C(=O)NS1(=O)=O` (single isomer, unassigned) [Example 100495], the IC50 in assay [1] (setting [3]) worked out at 539 nM; in assay [2] (setting [4]), 0.462 nM.
As for `CO[C@@]1(CC(=O)N2CCN(C)C[C@H]2C)/C=C/C[C@H](C)[C@@H](C)S(=O)(=O)NC(=O)c2ccc3c(c2)N(C[C@@H]2CC[C@H]21)C[C@@]1(CCCc2cc(Cl)ccc21)CO3` (single isomer, unassigned) [Example 100479], the IC50 is 332 nM in assay [1] (setting [5]) and 0.758 nM in assay [2] (setting [4]).
For `CO[C@]1(CN2CCN(C(C)C)[C@@H](C)C2)/C=C/C[C@H](C)[C@@H](C)S(=O)(=O)NC(=O)c2ccc3c(c2)N(C[C@@H]2CC[C@H]21)C[C@@]1(CCCc2cc(Cl)ccc21)CO3` [Example 337, (1S,3′R,6′R,7′R,8′E,11′S,12′R)-6-chloro-7′-methoxy-11′,12′-dimethyl-7′-(((3S)-3-methyl-4-(1-methylethyl)-1-piperazinyl)methyl)-3,4-dihydro-2H,15′H-spiro[naphthalene-1,22′-[20]oxa[13]thia[1′14]diazatetracyclo [14.7.2.0~3,6~.0~19,24~]pentacosa[8,16,18,24]tetraen]-15′-one 13′,13′-dioxide], the half-inhibitory concentration (IC50) in assay [1] (setting [6]) stood at 59 nM; in assay [2] (setting [7]), 0.09 nM.
Regarding `CO[C@]1(CN2CCN3CCCC[C@@H]3C2)/C=C/C[C@H](C)[C@@H](CCN2CCOCC2)S(=O)(=O)NC(=O)c2ccc3c(c2)N(C[C@@H]2CC[C@H]21)C[C@@]1(CCCc2cc(Cl)ccc21)CO3` [Example 365, (1S,3′R,6′R,7′R,8′E,11′S,12′R)-6-chloro-7′-methoxy-11′-methyl-12′-(2-(4-morpholinyl)ethyl)-7′-((9aR)-octahydro-2H-pyrido[1,2-a]pyrazin-2-ylmethyl)-3,4-dihydro-2H,15′H-spiro[naphthalene-1,22′-[20]oxa[13]thia[1,14]diazatetracyclo [14.7.2.0~3,6~.0~19,24~]pentacosa[8,16,18,24]tetraen]-15′-one 13′,13′-dioxide], the values for the IC50 in assay [1] (setting [6]) and in assay [2] (setting [7]) were 32 nM and 0.104 nM, respectively.
Take `CC[C@@H]1CCCC[C@](COC)(OC)[C@@H]2CC[C@H]2CN2C[C@@]3(CCCc4cc(Cl)ccc43)COc3ccc(cc32)C(=O)NS1(=O)=O` [Example 100037, (1S,3′R,6′R,7′S,12′R)-6-chloro-12′-ethyl-7′-methoxy-7′-(methoxymethyl)-3,4-dihydro-2H,15′H-spiro[naphthalene-1,22′-[20]oxa[13]thia[1,14]diazatetracyclo [14.7.2.0~3,6~.0~19,24~]pentacosa[16,18,24]trien]-15′-one 13′,13′-dioxide]: the IC50 is 1920 nM in assay [1] (setting [3]) and 1.8 nM in assay [2] (setting [4]).
Turning to `CC(C)O[C@]1(CN2CCN3CCOC[C@@H]3C2)/C=C/C[C@H](C)[C@@H](C)S(=O)(=O)NC(=O)c2ccc3c(c2)N(C[C@@H]2CC[C@H]21)C[C@@]1(CCCc2cc(Cl)ccc21)CO3` [Example 47, (1S,3′R,6′R,7′R,8′E,11′S,12′R)-6-chloro-7′-((9aS)-hexahydropyrazino[2,1-c][1,4]oxazin-8(1H)-ylmethyl)-11′,12′-dimethyl-7′-(1-methylethoxy)-3,4-dihydro-2H,15′H-spiro[naphthalene-1,22′-[20]oxa[13]thia[1,14]diazatetracyclo [14.7.2.0~3,6~.0~19,24~]pentacosa[8,16,18,24]tetraen]-15′-one 13′,13′-dioxide], the results for the IC50 in assay [1] (setting [6]) and in assay [2] (setting [7]) were 285 nM and 0.131 nM, respectively.
For the compound `C[C@@H]1[C@@H](C)C/C=C/[C@@](O)(C#CCCc2ccccn2)[C@@H]2CC[C@H]2CN2C[C@@]3(CCCc4cc(Cl)ccc43)COc3ccc(cc32)C(=O)NS1(=O)=O` [Example 100440, (1S,3′R,6′R,7′S,8′E,11′S,12′R)-6-chloro-7′-hydroxy-11′,12′-dimethyl-7′-(4-(2-pyridinyl)-1-butyn-1-yl)-3,4-dihydro-2H,15′H-spiro[naphthalene-1,22′-[20]oxa[13]thia[1,14]diazatetracyclo [14.7.2.0~3,6~.0~19,24~]pentacosa[8,16,18,24]tetraen]-15′-one 13′,13′-dioxide], the IC50 in assay [1] (setting [5]) turned out to be 354 nM; in assay [2] (setting [4]), 0.398 nM.
With `COCC[C@@H]1[C@@H](C)C/C=C/[C@@](CN2CCN(C)CC2)(OC)[C@@H]2CC[C@H]2CN2C[C@@]3(CCCc4cc(Cl)ccc43)COc3ccc(cc32)C(=O)NS1(=O)=O` [Example 178, (1S,3′R,6′R,7′R,8′E,11′S,12′R)-6-chloro-7′-methoxy-12′-(2-methoxyethyl)-11′-methyl-7′-((4-methyl-1-piperazinyl)methyl)-3,4-dihydro-2H,15′H-spiro[naphthalene-1,22′-[20]oxa[13]thia[1,14]diazatetracyclo [14.7.2.0~3,6~.0~19,24~]pentacosa[8,16,18,24]tetraen]-15′-one 13′,13′-dioxide], the IC50 in assay [1] (setting [6]) stood at 71 nM; in assay [2] (setting [7]), 0.177 nM.
`C[C@@H]1[C@@H](C)CCC[C@]2(OC[C@@H](N(C)C)CO2)[C@@H]2CC[C@H]2CN2C[C@@]3(CCCc4cc(Cl)ccc43)COc3ccc(cc32)C(=O)NS1(=O)=O` [Example 100227]: the IC50 was 191 nM in assay [1] (setting [3]) and 0.423 nM in assay [2] (setting [4]).
`CO[C@@]1(C2SCCCS2)/C=C/[C@H](C)[C@H](C)CS(=O)(=O)NC(=O)c2ccc3c(c2)N(C[C@@H]2CC[C@H]21)C[C@@]1(CCCc2cc(Cl)ccc21)CO3` [Example 100567, (1S,3′R,6′R,7′S,8′E,10′S,11′S)-6-chloro-7′-(1,3-dithian-2-yl)-7′-methoxy-10′,11′-dimethyl-3,4-dihydro-2H,15′H-spiro[naphthalene-1,22′-[20]oxa[13]thia[1,14]diazatetracyclo [14.7.2.0~3,6~.0~19,24~]pentacosa[8,16,18,24]tetraen]-15′-one 13′,13′-dioxide]: the IC50 was 249 nM in assay [1] (setting [3]) and 0.125 nM in assay [2] (setting [4]).
As to `CO[C@@]1(C#CCO)/C=C/C[C@H](C)[C@@H](C)S(=O)(=O)NC(=O)c2ccc3c(c2)N(C[C@@H]2CC[C@H]21)C[C@@]1(CCCc2cc(Cl)ccc21)CO3` [Example 100345, (1S,3′R,6′R,7′S,8′E,11′S,12′R)-6-chloro-7′-(3-hydroxy-1-propyn-1-yl)-7′-methoxy-11′,12′-dimethyl-3,4-dihydro-2H,15′H-spiro[naphthalene-1,22′-[20]oxa[13]thia[1,14]diazatetracyclo [14.7.2.0~3,6~.0~19,24~]pentacosa[8,16,18,24]tetraen]-15′-one 13′,13′-dioxide], the IC50 in assay [1] (setting [5]) stood at 218 nM; in assay [2] (setting [4]) it was 2.42 nM.

These data come from US10821115B2, “Compounds that inhibit Mcl-1 protein” (priority 2017, dated 2020).
